# Data as given in patent US12570642B2, “GLP-IR modulating compounds” (Gilead Sciences, Inc., priority 2021, dated 2026).
# Target: GLP-1R (Homo sapiens, UniProt P43220)
# Assay: GLP-1R Activation - cAMP Assay
# Type: cell-based
# Conditions: cAMP increase in CHO cells stably expressing GLP-1R; each compound run on one of the two cAMP assays (Assay 1 or Assay 2, not specified)
# Summary of the method: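 CHO cells stably expressing GLP-1R, plated at 1,000 cells/well overnight, then equilibrated 1 h in HBSS with 20 mM Hepes and 0.1% BSA. Agonist added as 10-point dose response for 30 min at 37 °C. cAMP measured by HTRF (Cisbio Gs Dynamic kit); EC50 from sigmoidal fit.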
# GLP-1R, sequence (P43220 24-463): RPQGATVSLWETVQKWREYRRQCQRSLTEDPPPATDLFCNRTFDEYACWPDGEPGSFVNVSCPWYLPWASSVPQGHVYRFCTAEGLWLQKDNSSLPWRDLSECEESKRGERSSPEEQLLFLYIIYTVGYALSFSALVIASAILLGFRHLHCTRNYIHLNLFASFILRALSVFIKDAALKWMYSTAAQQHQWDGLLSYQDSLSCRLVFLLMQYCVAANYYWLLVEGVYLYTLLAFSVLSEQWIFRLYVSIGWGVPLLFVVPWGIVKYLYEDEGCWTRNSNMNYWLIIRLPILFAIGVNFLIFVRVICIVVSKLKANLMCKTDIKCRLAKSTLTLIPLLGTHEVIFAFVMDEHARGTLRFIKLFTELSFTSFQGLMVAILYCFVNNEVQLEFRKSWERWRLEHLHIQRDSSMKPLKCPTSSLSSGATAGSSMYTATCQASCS
row,EC50 [nM],Compound
1,0.059,"Cc1ccc(COc2cccc(-c3cc(F)c(Cc4nc5ccc(C(=O)O)cc5n4[C@@H]4COCC4(C)C)cc3F)n2)c(F)n1 [Example 252, (S)-2-(2,5-difluoro-4-(6-((2-fluoro-6-methylpyridin-3-yl)methoxy)pyridin-2-yl)benzyl)-1-(4,4-dimethyltetrahydrofuran-3-yl)-1H-benzo[d]imidazole-6-carboxylic acid]"
2,0.064,"CC1(C)COC[C@H]1n1c(Cc2cc(F)c(-c3cccc(OCc4ccc(C#N)cc4F)n3)cc2Cl)nc2ccc(C(=O)O)cc21 [Example 257, (S)-2-(2-chloro-4-(6-((4-cyano-2-fluorobenzyl)oxy)pyridin-2-yl)-5-fluorobenzyl)-1-(4,4-dimethyltetrahydrofuran-3-yl)-1H-benzo[d]imidazole-6-carboxylic acid]"
3,0.709,"COC(=O)N1Cc2ccc(COc3cccc(-c4cc(F)c(Cc5nc6c(F)cc(C(=O)O)cc6n5[C@@H]5COCC5(C)C)cc4F)n3)cc2C1 [Example 263, (S)-2-(2,5-difluoro-4-(6-((2-(methoxycarbonyl)isoindolin-5-yl)methoxy)pyridin-2-yl)benzyl)-1-(4,4-dimethyltetrahydrofuran-3-yl)-4-fluoro-1H-benzo[d]imidazole-6-carboxylic acid]"
4,0.155,"CC1(C)COCC1n1c(Cc2cc(F)c(-c3cccc(OCc4ncc(C(F)(F)F)cc4F)n3)cc2F)nc2c(F)cc(C(=O)O)cc21 (stereo not drawn) [Example 264, 2-(2,5-difluoro-4-(6-((3-fluoro-5-(trifluoromethyl)pyridin-2-yl)methoxy)pyridin-2-yl)benzyl)-1-(4,4-dimethyltetrahydrofuran-3-yl)-4-fluoro-1H-benzo[d]imidazole-6-carboxylic acid]"
5,0.171,"Cc1cc(Cc2nc3c(F)cc(C(=O)O)cc3n2[C@@H]2COCC2(C)C)c(F)cc1-c1ccnc(OCc2ccc(C#N)cc2F)n1 [Example 265, (S)-2-(4-(2-((4-cyano-2-fluorobenzyl)oxy)pyrimidin-4-yl)-2-fluoro-5-methylbenzyl)-1-(4,4-dimethyltetrahydrofuran-3-yl)-4-fluoro-1H-benzo[d]imidazole-6-carboxylic acid]"
6,0.175,"N#Cc1ccc(COc2cccc(-c3cc(F)c(Cc4nc5ccc(C(=O)O)cc5n4C4COCC45CC5)cc3F)n2)c(F)c1 (stereo not drawn) [Example 268, 2-(4-(6-((4-cyano-2-fluorobenzyl)oxy)pyridin-2-yl)-2,5-difluorobenzyl)-1-(5-oxaspiro[2.4]heptan-7-yl)-1H-benzo[d]imidazole-6-carboxylic acid]"
7,0.085,"Cc1cc(Cc2nc3ccc(C(=O)O)cc3n2[C@@H]2COCC2(C)C)c(F)cc1-c1cccc(OCc2ccc(C#N)cc2F)n1 [Example 278, (S)-2-(4-(6-((4-cyano-2-fluorobenzyl)oxy)pyridin-2-yl)-2-fluoro-5-methylbenzyl)-1-(4,4-dimethyltetrahydrofuran-3-yl)-1H-benzo[d]imidazole-6-carboxylic acid]"
8,0.195,"Cc1cc(Cc2nc3ccc(C(=O)O)cc3n2[C@@H]2COCC2(C)C)c(F)cc1-c1ccc(F)c(OCc2ccc(C#N)cc2F)n1 [Example 279, (S)-2-(4-(6-((4-cyano-2-fluorobenzyl)oxy)-5-fluoropyridin-2-yl)-2-fluoro-5-methylbenzyl)-1-(4,4-dimethyltetrahydrofuran-3-yl)-1H-benzo[d]imidazole-6-carboxylic acid]"
9,0.165,"Cc1cc(Cc2nc3ccc(C(=O)O)cc3n2[C@@H]2COCC2(C)C)c(F)cc1-c1cccc(OCc2ccc(Cl)cc2F)n1 [Example 280, (S)-2-(4-(6-((4-chloro-2-fluorobenzyl)oxy)pyridin-2-yl)-2-fluoro-5-methylbenzyl)-1-(4,4-dimethyltetrahydrofuran-3-yl)-1H-benzo[d]imidazole-6-carboxylic acid]"
10,0.135,"Cc1cc(Cc2nc3ccc(C(=O)O)cc3n2[C@@H]2COCC2(C)C)c(F)cc1-c1ccnc(OCc2ccc(Cl)cc2F)n1 [Example 284, (S)-2-(4-(2-((4-chloro-2-fluorobenzyl)oxy)pyrimidin-4-yl)-2-fluoro-5-methylbenzyl)-1-(4,4-dimethyltetrahydrofuran-3-yl)-1H-benzo[d]imidazole-6-carboxylic acid]"
11,0.096,"CC1(C)COC[C@H]1n1c(Cc2cc(F)c(-c3ccnc(OCc4ccc(C(F)(F)F)cc4F)n3)cc2F)nc2ccc(C(=O)O)cc21 [Example 285, (S)-2-(2,5-difluoro-4-(2-((2-fluoro-4-(trifluoromethyl)benzyl)oxy)pyrimidin-4-yl)benzyl)-1-(4,4-dimethyltetrahydrofuran-3-yl)-1H-benzo[d]imidazole-6-carboxylic acid]"

# Second part, the molecule before the results:
row,Compound,EC50 [nM]
1,"CC1(C)COC[C@H]1n1c(Cc2cc(F)c(-c3cccc(OCc4ccc(Cl)nc4F)n3)cc2F)nc2ccc(C(=O)O)cc21 [Example 249, (S)-2-(4-(6-((6-chloro-2-fluoropyridin-3-yl)methoxy)pyridin-2-yl)-2,5-difluorobenzyl)-1-(4,4-dimethyltetrahydrofuran-3-yl)-1H-benzo[d]imidazole-6-carboxylic acid]",0.137
2,"COCCn1c(Cc2c(F)cc(-c3cccc(OCc4ccc(-n5ccnn5)cc4F)n3)c(F)c2F)nc2c(F)cc(C(=O)O)cc21 [Example 250, 4-fluoro-1-(2-methoxyethyl)-2-(2,3,6-trifluoro-4-(6-((2-fluoro-4-(1H-1,2,3-triazol-1-yl)benzyl)oxy)pyridin-2-yl)benzyl)-1H-benzo[d]imidazole-6-carboxylic acid]",0.048
3,"COCCn1c(Cc2c(F)cc(-c3cccc(OCc4ccc(Cl)cc4F)n3)c(F)c2F)nc2c(F)cc(C(=O)O)cc21 [Example 251, 2-(4-(6-((4-chloro-2-fluorobenzyl)oxy)pyridin-2-yl)-2,3,6-trifluorobenzyl)-4-fluoro-1-(2-methoxyethyl)-1H-benzo[d]imidazole-6-carboxylic acid]",0.079
4,"COCCn1c(Cc2c(F)cc(-c3cccc(OCc4ccc(-n5ccnn5)nc4)n3)c(F)c2F)nc2c(F)cc(C(=O)O)cc21 [Example 253, 2-(4-(6-((6-(1H-1,2,3-triazol-1-yl)pyridin-3-yl)methoxy)pyridin-2-yl)-2,3,6-trifluorobenzyl)-4-fluoro-1-(2-methoxyethyl)-1H-benzo[d]imidazole-6-carboxylic acid]",0.071
5,"CC1(C)COC[C@H]1n1c(Cc2cc(F)c(-c3cccc(OCc4ccc(-n5ccnn5)nc4)n3)cc2F)nc2ccc(C(=O)O)cc21 [Example 254, (S)-2-(4-(6-((6-(1H-1,2,3-triazol-1-yl)pyridin-3-yl)methoxy)pyridin-2-yl)-2,5-difluorobenzyl)-1-(4,4-dimethyltetrahydrofuran-3-yl)-1H-benzo[d]imidazole-6-carboxylic acid]",0.088
6,"COCCn1c(Cc2cc(F)c(-c3cccc(OCc4ccc(Cl)cc4)n3)cc2Cl)nc2c(F)cc(C(=O)O)cc21 [Example 255, 2-(2-chloro-4-(6-((4-chlorobenzyl)oxy)pyridin-2-yl)-5-fluorobenzyl)-4-fluoro-1-(2-methoxyethyl)-1H-benzo[d]imidazole-6-carboxylic acid]",0.108
7,"COCCn1c(Cc2cc(F)c(-c3cccc(OCc4ccc5c(c4)CN(C(=O)OC)C5)n3)cc2Cl)nc2c(F)cc(C(=O)O)cc21 [Example 258, 2-(2-chloro-5-fluoro-4-(6-((2-(methoxycarbonyl)isoindolin-5-yl)methoxy)pyridin-2-yl)benzyl)-4-fluoro-1-(2-methoxyethyl)-1H-benzo[d]imidazole-6-carboxylic acid]",0.24
8,"N#Cc1ccc(COc2cccc(-c3cc(F)c(Cc4nc5ccc(C(=O)O)cc5n4CC4(C5CC5)CCCO4)cc3F)n2)c(F)c1 (stereo not drawn) [Example 273, 2-(4-(6-((4-cyano-2-fluorobenzyl)oxy)pyridin-2-yl)-2,5-difluorobenzyl)-1-((2-cyclopropyltetrahydrofuran-2-yl)methyl)-1H-benzo[d]imidazole-6-carboxylic acid]",0.942
9,"N#Cc1ccc(COc2cccc(-c3cc(F)c(Cc4nc5ccc(C(=O)O)cc5n4CC4CC5(CC5)CO4)cc3F)n2)c(F)c1 (stereo not drawn) [Example 274, 1-(5-oxaspiro[2.4]heptan-6-ylmethyl)-2-(4-(6-((4-cyano-2-fluorobenzyl)oxy)pyridin-2-yl)-2,5-difluorobenzyl)-1H-benzo[d]imidazole-6-carboxylic acid]",0.643
10,"CC1(C)COC[C@H]1n1c(Cc2ccc(-c3ccc(F)c(OCc4ccc(C#N)cc4F)n3)cc2)nc2ccc(C(=O)O)cc21 [Example 277, (S)-2-(4-(6-((4-cyano-2-fluorobenzyl)oxy)-5-fluoropyridin-2-yl)benzyl)-1-(4,4-dimethyltetrahydrofuran-3-yl)-1H-benzo[d]imidazole-6-carboxylic acid]",0.34
11,"COCCn1c(Cc2c(F)cc(-c3cccc(OCc4ccc(C#N)cc4)n3)c(F)c2F)nc2ccc(C(=O)O)cc21 [Example 281, 2-(4-(6-((4-cyanobenzyl)oxy)pyridin-2-yl)-2,3,6-trifluorobenzyl)-1-(2-methoxyethyl)-1H-benzo[d]imidazole-6-carboxylic acid]",0.655
12,"CC1(C)COC[C@H]1n1c(Cc2c(F)cc(-c3ccc(F)c(OCc4ccc(Cl)cc4)n3)c(F)c2F)nc2ccc(C(=O)O)cc21 [Example 282, (S)-2-(4-(6-((4-chlorobenzyl)oxy)-5-fluoropyridin-2-yl)-2,3,6-trifluorobenzyl)-1-(4,4-dimethyltetrahydrofuran-3-yl)-1H-benzo[d]imidazole-6-carboxylic acid]",0.192
13,"CC1(C)COC[C@H]1n1c(Cc2c(F)cc(-c3ccc(F)c(OCc4ccc(C#N)cc4)n3)c(F)c2F)nc2ccc(C(=O)O)cc21 [Example 283, (S)-2-(4-(6-((4-cyanobenzyl)oxy)-5-fluoropyridin-2-yl)-2,3,6-trifluorobenzyl)-1-(4,4-dimethyltetrahydrofuran-3-yl)-1H-benzo[d]imidazole-6-carboxylic acid]",0.477
